Source: patent US10464926B2, “Heterobicyclic compounds and their use for the treatment of tuberculosis” (OTSUKA PHARMACEUTICAL CO., LTD., priority 2014, dated 2019)

Structure (SMILES) | melting point
Cc1ccc(N2CCC(O)(COc3ccc(Cl)c4c3CCC(=O)N4)CC2)nc1C | 169.6 to 171 °C
O=C1CCc2c(OCC3(O)CCN(c4c(F)cc(Br)cc4F)CC3)cc(F)c(F)c2N1 | 233.1 to 233.2 °C
O=C1CCc2c(OCC3(O)CCN(c4cc5c(cc4F)OC(F)(F)O5)CC3)cc(F)c(Cl)c2N1 | 249.4 to 250.5 °C (dec.)
O=C1CCc2c(OC[C@@]3(O)CCN(c4ccc(Br)cc4F)C[C@H]3O)ccc(F)c2N1 | 194.7 to 194.8 °C
O=C1CCc2c(OC[C@]3(O)CCN(c4ccc(F)cc4Cl)C[C@H]3F)ccc(F)c2N1 (relative stereo) | 218 to 220 °C
O=C1CCc2c(OC[C@H]3CCN(c4cc(F)c(Cl)cc4F)C[C@@H]3O)ccc(F)c2N1 (relative stereo) | 168.9 to 172.7 °C
O=C1CCc2c(OC[C@]3(O)CCN(c4c(F)cc(Br)cc4F)C[C@H]3O)cc(F)c(Cl)c2N1 | 199 to 199.6 °C
O=C1CCc2c(OCC3(O)CCN(c4c(F)cc(Br)cc4F)CC3)ccc(Cl)c2N1 | 195.3 to 195.4 °C
O=C1CCc2c(OC[C@]3(O)CCN(c4nc5ccccc5[nH]4)C[C@H]3O)ccc(F)c2N1 | 279 to 281 °C
O=C1CCc2c(OC[C@]3(O)CCN(c4nc5ccc(Cl)cc5o4)C[C@H]3O)ccc(F)c2N1 | 219 to 220 °C
CCCc1cc(N2CCC(O)(COc3ccc(F)c4c3CCC(=O)N4)CC2)c(F)cc1F | 184.7 to 184.8 °C
O=C1CCc2c(OC[C@]3(O)CCN(c4c(F)cc(Cl)cc4F)C[C@H]3F)ccc(F)c2N1 (relative stereo) [Example 440] | 222 to 223 °C
O=C1CCc2c(OC[C@]3(O)CCN(c4ccc(F)cc4)C[C@H]3O)ccc(F)c2N1 [Example 337] | 185.2 to 185.3 °C
O=C1CCc2ccc(OCC3(O)CCN(c4ccc(Cl)cc4F)CC3)cc2N1 | 207.8 to 208.7 °C
O=C1CCc2c(OC[C@]3(O)CCN(c4c(F)cc(Cl)cc4F)C[C@H]3O)cc(F)c(Cl)c2N1 [Example 278] | 192 to 194 °C
O=C1CCc2c(OC[C@]3(O)CCN(c4c(F)cc(Cl)cc4F)C[C@H]3O)ccc(Cl)c2N1 | 197 to 199 °C
CCNC(=O)O[C@@H]1CN(c2ccc(Cl)cc2F)CC[C@@]1(O)COc1ccc(F)c2c1CCC(=O)N2 | 156 to 157 °C
O=C1CCc2c(OC[C@]3(O)CCN(c4c(F)cc(F)cc4Cl)C[C@H]3O)ccc(F)c2N1 (relative stereo) [Example 303] | 215 to 218 °C
O=C1CCc2c(OCC3(O)CCN(c4cc5c(cc4F)OC(F)(F)O5)CC3)ccc(Cl)c2N1 | 213.4 to 213.5 °C
O=C1CCc2c(OC[C@]3(O)CCN(c4cc5c(cc4F)OC(F)(F)O5)C[C@H]3O)ccc(F)c2N1 (relative stereo) | 197.4 to 197.5 °C
O=C1CCc2c(OC[C@]3(O)CCN(c4c(F)cc(Cl)cc4F)C[C@@H]3F)ccc(F)c2N1 (relative stereo) [Example 439] | 223 to 224 °C
O=C1CCc2c(OC[C@]3(O)CCN(c4c(F)cc(Br)cc4F)C[C@@H]3O)ccc(F)c2N1 (relative stereo) | 209 to 210 °C
CN(CC1(O)CCN(c2ccc(Cl)cc2Cl)CC1)c1ccc(F)c2c1CCC(=O)N2 | 156 to 157 °C
CCCOc1cc(F)c(N2CC[C@@](O)(COc3ccc(F)c4c3CCC(=O)N4)[C@H](O)C2)c(F)c1 | 194.8 to 195 °C
O=C1CCc2c(OC[C@]3(O)CCN(c4c(F)cc(Br)cc4F)C[C@H]3O)ccc(Cl)c2N1 [Example 326] | 203.6 to 203.7 °C
CCOc1cc(F)c(N2CCC(O)(COc3ccc(Cl)c4c3CCC(=O)N4)CC2)cc1F | 169 to 169.2 °C
CCCCOc1cc(F)c(N2CC[C@@](O)(COc3ccc(F)c4c3CCC(=O)N4)[C@H](O)C2)c(F)c1 | 185.8 to 186.2 °C
O=C1CCc2c(OC[C@]3(O)CCN(c4ccc(Cl)cc4F)C[C@H]3O)ccc(Cl)c2N1 [Example 328] | 185 to 186.4 °C
O=C1CCc2c(OCC3(O)CCN(c4cc5c(cc4F)OC(F)(F)O5)CC3)cc(F)c(F)c2N1 | 258.9 to 259 °C (dec.)

The remaining lines, values ahead:

melting point | Structure (SMILES)
216 °C | N#Cc1ccc(N2CCC(O)(COc3ccc(F)c4c3CCC(=O)N4)CC2)cc1
216.1 °C | O=C1CCc2c(OCC3(O)CCN(c4ccc(C(F)(F)F)cc4)CC3)ccc(F)c2N1
181 °C | Cc1ccc(N2CCC(O)(COc3ccc(F)c4c3CCC(=O)N4)CC2)cc1
239.8 to 239.9 °C | CCOc1cc(N2CCC(O)(COc3ccc(F)c4c3CCC(=O)N4)CC2)c(F)cc1Cl
208 °C | O=C1CCc2c(OCC3(O)CCN(c4ccc(F)cc4Cl)CC3)ccc(F)c2N1
204.9 °C | O=C1CCc2c(OCC3(O)CCN(c4ccc(Cl)cc4Br)CC3)ccc(F)c2N1
228.7 °C | O=C1CCc2c(OCC3(O)CCN(c4cccc(Cl)c4Cl)CC3)ccc(F)c2N1
175.9 to 177.1 °C | O=C1CCc2c(OCC3(O)CCN(c4ccc(OCc5ccc(Cl)cc5Cl)cc4F)CC3)ccc(F)c2N1
207.4 to 207.6 °C | CSc1ccc(N2CCC(O)(COc3ccc(F)c4c3CCC(=O)N4)CC2)c(Cl)c1
251.6 to 251.9 °C | Cc1cc(Cl)cc(Cl)c1N1CCC(O)(COc2ccc(F)c3c2CCC(=O)N3)CC1
159.4 to 159.5 °C | O=C1CCc2c(OCC3(O)CCN(c4cccc(C(F)(F)F)c4)CC3)ccc(F)c2N1
212.2 to 213.1 °C | Cc1cc(N2CCC(O)(COc3ccc(Cl)c4c3CCC(=O)N4)CC2)c(F)cc1Cl
172.5 to 172.7 °C | O=C1CCc2c(OCC3(O)CCN(c4ncc(C(F)(F)F)cc4Cl)CC3)ccc(F)c2N1
187.9 to 190.2 °C | CCOc1cnc(N2CCC(O)(COc3ccc(F)c4c3CCC(=O)N4)CC2)c(Cl)c1
193.2 to 193.5 °C | CCCCOc1ccc(N2CCC(O)(COc3ccc(F)c4c3CCC(=O)N4)CC2)c(F)c1
174.4 to 175.8 °C | O=C1CCc2c(OCC3(O)CCN(c4ncc(Cl)cc4F)CC3)ccc(Cl)c2N1
148 °C | CCOC(=O)c1cc(N2CCC(O)(COc3ccc(F)c4c3CCC(=O)N4)CC2)ccc1Cl
249 to 250 °C | O=C1CCc2c(OCC3(O)CCN(c4nc5ccc(Cl)cc5o4)CC3)ccc(F)c2N1
214 to 215 °C | Cc1cc(Cl)ccc1N1CCC(O)(COc2ccc(F)c3c2CCC(=O)N3)CC1
167.8 to 168 °C | CCc1ccc(N2CCC(O)(COc3ccc(F)c4c3CCC(=O)N4)CC2)c(Cl)c1
201.3 to 202.4 °C | CCc1cc(N2CCC(O)(COc3ccc(F)c4c3CCC(=O)N4)CC2)c(F)cc1Cl
191.9 to 192.2 °C | CC(C)Oc1ccc(N2CCC(O)(COc3ccc(F)c4c3CCC(=O)N4)CC2)c(F)c1
212 to 213 °C | O=C1CCc2c(OCC3(O)CCN(c4c(F)cccc4Cl)CC3)ccc(F)c2N1
225.8 to 225.9 °C | O=C1CCc2c(OCC3(O)CCN(c4c(Cl)cncc4Cl)CC3)ccc(F)c2N1
198.7 to 198.9 °C | O=C1CCc2c(OCC3(O)CCN(c4cc(F)c(Cl)cc4Cl)CC3)ccc(F)c2N1
178.6 to 179.3 °C | CCc1ccccc1N1CCC(O)(COc2ccc(F)c3c2CCC(=O)N3)CC1
175.6 to 176.1 °C | O=C1CCc2c(OCC3(O)CCN(c4c(F)cc(F)cc4F)CC3)ccc(Cl)c2N1
